Experimental findings from patent US5719278A, “Tricyclic benzazepine vasopressin antagonists” (American Cyanamid Company, priority 1996, dated 1998) are described below.

In test [1] the target is T1, Rat Kidney Medullary V2 Receptors (Rattus norvegicus, UniProt Q00788).
T1 construct: Medullary tissues from rat kidneys are dissected out; from tissue; host or cells: rat kidney medulla membranes
The test is described as follows: Binding Assay to Rat Kidney Medullary V2 Receptors. The note with it: for IC50: Rat Kidney Medullary V2 Receptors (no asterisk). On the procedure:
Binding Assay to Rat Kidney Medullary V2 Receptors
Medullary tissues from rat kidneys are dissected out, cut into small pieces and let soak in a […] sodium chloride solution containing 1.0 mM EDTA with many changes of the liquid phase, until the solution is clear of blood. The tissue is homogenized in a 0.25M sucrose solution containing 1.0 mM EDTA and 0.1 mM PMSF using a Potter-Elvehjem homogenizer with a teflon pestle. The homogenate is filtered through several layers (4 layers) of cheese cloth. The filtrate is rehomogenized using a dounce homogenizer, with a tight fitting pestle. The final homogenate is contrifuged at 1500×g for 15 min. The nuclear pellet is discarded and the supernatant fluid recentrifuged at 40,000×g for 30 min. The resulting pellet formed contains a dark inner part with the exterior, slightly pink. The pink outer part is suspended in a small amount of 50.0 mM Tris.HCl buffer, pH 7.4. The protein content is determined by the Lowry's method (Lowry et al, J. Biol. Chem., 1953). The membrane suspension is stored at -70° C., in 50.0 mM Tris.HCl, containing 0.2% inactivated BSA and 0.1 mM PMSF in aliquots of 1.0 ml containing 10.0 mg protein per ml of suspension until use in subsequent binding experiments.
For binding experiments, the following is added in μl volume to wells of a 96 well format of a microtiter plate: 100.0 μl of 100.0 mM Tris.HCl buffer containing 0.2% heat inactivated BSA, 10.0 mM MgCl2 and a mixture of protease inhibitors: leupeptin, 1.0 mg %; aprotinin, 1.0 mg %; 1,10-phenanthroline, 2.0 mg %; trypsin inhibitor, 10.0 mg % and 0.1 mM PMSF, 20.0 μl of [^3 H]Arginine^8, vasopressin (S.A. 75.0 Ci/mmole) at 0.8 nM and the reaction initiated by the addition of 80.0 μl of tissue membranes (200.0 μg tissue protein). The plates are left undisturbed on the bench top for 120 min. to reach equilibrium. Non-specific binding is assessed in the presence of 1.0 μM of unlabeled ligand, added in 20 μl volume. For test compounds, these are solubilized in 50% dimethylsulfoxide (DMSO) and added in 20.0 μl volume to a final incubation volume of 200 μl. Upon completion of binding, the content of each well is filtered off, using a Brandel® cell Harvester (Gaithersburg, Md.). The radioactivity trapped on the filter disk by the ligand-receptor complex is assessed by liquid scintillation counting in a Packard LS Counter, with an efficiency of 65% for tritium. The data are analyzed for IC50 values by the LUNDON-2 program for competition (LUNDON SOFTWARE, Ohio).

A further test concerns the target T2, oxytocin receptors (Rattus norvegicus, UniProt P70536).
T2 construct: The uteri are dissected out, cleaned of fat and connective tissues; from tissue; host or cells: uterus of DES-treated female Sprague-Dawley rats
T2 sequence (P70536 1-388): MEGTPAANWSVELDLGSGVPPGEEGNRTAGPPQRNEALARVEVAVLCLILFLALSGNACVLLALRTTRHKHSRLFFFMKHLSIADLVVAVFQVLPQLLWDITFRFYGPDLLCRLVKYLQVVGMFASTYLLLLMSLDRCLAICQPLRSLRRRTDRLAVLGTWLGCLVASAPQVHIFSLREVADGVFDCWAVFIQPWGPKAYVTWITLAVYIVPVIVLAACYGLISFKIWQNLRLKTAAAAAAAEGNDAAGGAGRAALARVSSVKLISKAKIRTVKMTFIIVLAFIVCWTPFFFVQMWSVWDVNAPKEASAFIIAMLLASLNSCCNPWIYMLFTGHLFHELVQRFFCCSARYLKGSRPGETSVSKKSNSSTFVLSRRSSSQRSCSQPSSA
The test is described as follows: Oxytocin Receptor Binding. Also noted: species or system Sprague-Dawley rat. The method, then:
Oxytocin Receptor Binding
Female Sprague-Dawley rats weighing approximately 200-250 g are injected intramuscularly (i.m.) with 0.3 mg/kg of body weight of diethylstilbestrol (DES). The rats are sacrificed 18 hours later under pentobarbital anesthesia. The uteri are dissected out, cleaned of fat and connective tissues and rinsed in 50 ml of normal saline. The tissue pooled from six rats is homogenized in 50 ml of […] TriS.HCl, containing 0.5 mM dithiothreitol and 1.0 mM EDTA, adjusted to pH 7.4, using a polytron at setting 6 with three passes of 10 sec each. The homogenate is passed through two (2) layers of cheesecloth and the filtrate contrifuged at 1000×g for 10 min. The clear supernatant is removed and recentrifuged at 165,000×g for 30 min. The resulting pellet containing the oxytocin receptors is resuspended in 50.0 mM Tris.HCl containing 5.0 mM MgCl2 at pH 7.4, to give a protein concentration of 2.5 mg/ml of tissue suspension. This preparation is used in subsequent binding assays with [^3 H]Oxytocin.
Binding of 3,5-[^3 H]Oxytocin ([^3 H]OT) to its receptors is done in microtiter plates using [^3 H]OT, at various concentrations, in an assay buffer of 50.0 mM Tris.HCl, pH 7.4 and containing 5.0 mM MgCl2, and a mixture of protease inhibitors: BSA, 0.1 mg; aprotinin, 1.0 mg; 1,10-phenanthroline, 2.0 mg; […], 10.0 mg; and PMSF, 0.3 mg per 100 ml of buffer solution. Non-specific binding is determined in the presence of 1.0 uM unlabeled OT. The binding reaction is terminated after 60 min., at 22° C., by rapid filtration through glass fiber filters using a Brandel® cell harvester (Biomedical Research and Development Laboratories, Inc., Gaithersburg, Md.). Competition experiments are conducted at equilibrium using 1.0 nM [^3 H]OT and varying the concentration of the displacing agents. The concentrations of agent displacing 50% of [^3 H]OT at its sites (IC50) are calculated by a computer assisted LUNDON-2 program (LUNDON SOFTWARE INC., Ohio, U.S.A.).

The test system of another test is Vasopressin V2. The test is described as follows: Vasopressin V2 Antagonist Activity in Conscious Hydrated Rats. Type of test: in vivo, rat. Particulars: 10 mg/kg orally, N = 2, AVP 0.4 μg/kg intraperitoneally; for Osmolality (mOsm/kg): urine. On the procedure:
Vasopressin V2 Antagonist Activity in Conscious Hyrdated Rats
Conscious hydrated rats are treated with compounds under study from 0.1 to 100 mg/kg orally or vehicle. Two to four rats are used for each compound. One hour later, arginine vasopressin (AVP, antidiuretic hormone, ADH) dissolved in peanut oil is administered at 0.4 μg/kg intraperitoneally. Two rats in each test would not receive arginine vasopressin but only the vehicle (peanut oil) to serve as water-loading control. Twenty minutes later each rat is given 30 mL/kg of deionized water orally by gavage and is placed individually in a metabolic cage equipped with a funnel and a graduated glass cylinder to collect urine for four hours. Urine volume is measured and osmolality analyzed by use of a Fiske One-Ten osmometer (Fiske Assoc., Norwood, Mass. U.S.A.). Urinary sodium, potassium, and chloride are analyzed by use of ion-specific electrodes in a Beckman E3(Electrolyte 3) Analyzer.
In the following results, […] and decreased osmolality relative to AVP-control indicates activity.

Test [2] addresses T3, V1 Receptor Subtype in Human Platelet (Homo sapiens, UniProt P37288).
T3 construct: from tissue; host or cells: human platelets (platelet rich plasma from Hudson Valley Blood Services)
The test is described as follows: Binding to Vasopressin V1 Receptor Subtype in Human Platelet Membranes. The method, then:
Radioligand Binding Experiments with Human Platelet Membranes
Platelet Source: Hudson Valley Blood Services, Westchester Medical Center, Valhalla, N.Y.
Frozen platelet rich plasma (PRP), received from the Hudson Valley Blood Services are thawed to room temperature. The tubes containing the PRP are centrifuged at 16,000×g for 10 min. at 4° C. and the supernatant fluid discarded. The platelets resuspended in an equal volume of 50.0 mM Tris.HCl, pH 7.5 containing 120 mM NaCl and 20.0 mM EDTA. The suspension is recentrifuged at 16,000×g for 10 min. This washing step is repeated one more time. The wash is discarded and the lysed pellets homogenized in low ionic strength buffer of Tris.HCl, 5.0 mM, pH 7.5 containing 5.0 mM EDTA. The homogenate is centrifuged at 39,000×g for 10 min. The resulting pellet is resuspended in Tris.HCl buffer, 70.0 mM, pH 7.5 and recentrifuged at 39,000×g for 10 min. The final pellet is resuspended in 50.0 mM Tris.HCl buffer pH 7.4 containing 120 mM NaCl and 5.0 mM HCl to give 1.0-2.0 mg protein per ml of suspension.
Binding to Vasopressin V1 Receptor Subtype in Human Platelet Membranes:
In wells of a 96 well format microtiter plate, add 100 μl of 50.0 mM Tris.HCl buffer containing 0.2% BSA and a mixture of protease inhibitors (aprotinin, leupeptin etc.). Then add 20 μl of [^3 H]Ligand: (Manning or Arg^8 Vasopressin), to give final concentrations ranging from 0.01 to 10.0 nM. Initiate the binding by adding 80.0 μl of platelet suspension (approx. 100 μg protein). Mix all reagents by pipetting the mixture up and down a few times. Non-specific binding is measured in the presence of 1.0 μM of unlabeled ligand (Manning or Arg^8 Vasopressin). Let the mixture stand undisturbed at room temperature for ninety (90) min. Upon this time, rapidly filter off the incubate under vacuum suction over GF/B filters, using a Brandel® Harvester. Determine the radioactivity caught on the filter disks by the addition of liquid scintillant and counting in a liquid scintillator

T1 sequence (Q00788 whole entry): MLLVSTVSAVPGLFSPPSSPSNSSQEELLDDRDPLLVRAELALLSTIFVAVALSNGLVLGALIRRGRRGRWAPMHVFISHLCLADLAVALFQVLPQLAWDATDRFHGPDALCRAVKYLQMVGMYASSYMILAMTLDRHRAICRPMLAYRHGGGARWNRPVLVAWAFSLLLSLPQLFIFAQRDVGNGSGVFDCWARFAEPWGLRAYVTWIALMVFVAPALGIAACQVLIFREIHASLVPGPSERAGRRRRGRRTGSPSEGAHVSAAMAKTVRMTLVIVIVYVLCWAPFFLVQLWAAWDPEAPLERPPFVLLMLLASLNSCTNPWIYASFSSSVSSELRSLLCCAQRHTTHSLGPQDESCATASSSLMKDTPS
T3 sequence (P37288 whole entry): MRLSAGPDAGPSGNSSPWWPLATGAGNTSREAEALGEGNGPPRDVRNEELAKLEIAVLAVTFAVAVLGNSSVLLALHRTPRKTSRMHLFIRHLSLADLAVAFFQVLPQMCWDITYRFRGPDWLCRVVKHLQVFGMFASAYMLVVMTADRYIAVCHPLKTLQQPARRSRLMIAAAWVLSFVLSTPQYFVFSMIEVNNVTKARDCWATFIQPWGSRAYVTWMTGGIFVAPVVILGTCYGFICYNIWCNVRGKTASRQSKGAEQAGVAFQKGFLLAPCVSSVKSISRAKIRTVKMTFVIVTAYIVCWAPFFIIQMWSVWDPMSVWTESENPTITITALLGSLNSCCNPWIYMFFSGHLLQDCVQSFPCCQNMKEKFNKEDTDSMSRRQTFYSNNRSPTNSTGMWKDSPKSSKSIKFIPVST

By IC50 is commonly meant the concentration needed to halve the response being measured. Read a low IC50 as greater potency. Take `Cc1ccc(F)cc1C(=O)Nc1ccc(C(=O)N2CCc3c[nH]nc3-c3sccc32)c(Cl)c1` [Example 3, N-[4-[(4,5-Dihydropyrazolo[3,4]thieno[3,2-b]azepin-6-(1H)-yl)carbonyl]-3-chlorophenyl]-5-fluoro-2-methylbenzamide]: in test [1], the IC50 is 0.0061 µM.
The same measure, in the same setting: then `O=C(Nc1ccc(C(=O)N2CCc3cn[nH]c3-c3sccc32)c(Cl)c1)c1cc(Cl)ccc1F` [Example 4, N-[4-[(4,5-Dihydropyrazolo[3,4-d]thieno[3,2-b]azepin-6(1H)-yl)carbonyl]-3-chlorophenyl]-5-chloro-2-fluorobenzamide], with 0.036 µM.
One may read the inhibition as the drop in the measured response relative to a control, in per cent. With `Cn1cc2c(n1)-c1sccc1N(C(=O)c1ccc(NC(=O)c3ccc(Cl)cc3Cl)cc1)CC2` [Example 5, N-[4-[[4,5-Dihydro-2-methylpyrazolo[3,4-d]thieno[3,2-b]-azepin-6-(2H)-yl]carbonyl]phenyl]2,4-dichlorobenzamide], on oxytocin receptors, the inhibition at 10 µM was 47%.
Turning to `Cc1ccccc1C(=O)Nc1ccc(C(=O)N2CCc3c[nH]nc3-c3sccc32)cc1` [Example 7, N-[4-[[4,5-Dihydropyrazolo[3,4-d]thieno[3,2-b]azepin-6(2H)-yl]carbonyl]phenyl]-2-methylbenzamide], in the test with Vasopressin V2, the “Urine Vol. (ml/4 hrs.)” value is listed as 20.8 ml/4 hrs and the “Osmolality (mOsm/kg)” value is recorded as 322 mOsm/kg. This compound also returned an inhibition at 10 µM on oxytocin receptors of 65%.
For the compound `Cc1ccc(F)cc1C(=O)Nc1ccc(C(=O)N2CCc3cn[nH]c3-c3cccnc32)cc1` [Example 16, N-[4-[(4,5-Dihydropyrazolo[3,4-d]pyrido[2,3-b]azepin-6(1H)-yl)carbonyl]phenyl]-5-fluoro-2-methylbenzamide], the IC50 in test [1] was 0.55 µM; in test [2] (*Binding to V1 Receptor Subtype in Human Platelet), 3.3 µM.
Compound `Cc1ccccc1C(=O)Nc1ccc(C(=O)N2CCc3cn(C)nc3-c3sccc32)cc1` [Example 361] yielded an IC50 on oxytocin receptors (1.0 nM [^3 H]OT, 60 min., 22° C.) of 6400 nM. This compound also came in with an inhibition at 10 µM at oxytocin receptors of 57%.
Turning to `O=C(c1ccc(-c2ccccc2)cc1)N1CCc2cn[nH]c2-c2ncccc21` [Example 364, 6-([1,1'-Biphenyl]-4-ylcarbonyl)-1,4,5,6-tetrahydropyrazolo[3,4-d]pyrido[3,2-b]azepine], the inhibition at 1 µM in test [1] (Rat Kidney Medullary V2, at 1 μM) came to 17%. For the same compound, in test [2] (1.5 h, *Human Platelet V1, at 10 μM), the inhibition at 10 µM was 77%.
Turning to `O=C(Nc1ccc(C(=O)N2CCc3cn[nH]c3-c3ncccc32)c(Cl)c1)c1ccccc1-c1ccccc1` [Example 366, N-[4-[(4,5-Dihydropyrazolo[3,4-d]pyrido[3,2-b]azepin-6(1H)-yl)carbonyl]-3-chlorophenyl][1,1'-biphenyl]-2-carboxamide], in the test with Vasopressin V2, the “Urine Vol. (ml/4 hrs.)” value was 17.8 ml/4 hrs and the “Osmolality (mOsm/kg)” value is on record as 431 mOsm/kg.
For `O=C(Nc1ccc(C(=O)N2CCc3c[nH]nc3-c3ncccc32)cn1)c1ccccc1-c1ccccc1` [Example 368, N-[5-[(4,5-Dihydro[3,4-d]pyrido[3,2-b]azepin-6(1H)-yl)carbonyl]-2-pyridinyl][1,1'-biphenyl]-2-carboxamide], in that order: 20.3 ml/4 hrs and 371 mOsm/kg.
